Measured values: patent publication US11014911B2, “CDK2 inhibitors” (Pfizer Inc., priority 2019, dated 2021)

molecular target: CDK2/Cyclin E1 full length (Homo sapiens (Human), UniProt P24941); experiment: CDK2/Cyclin E1 full length mobility shift assay; assay type: biochemical

SMILES	Ki [nM]
COc1cc(CC(=O)Nc2cc([C@@H]3CC[C@H](OC(=O)NC[C@@H]4CCCO4)C3)[nH]n2)ccn1 [Example 497, (1S,3R)-3-(3-{[(2-methoxypyridin-4-yl)acetyl]amino}-1H-pyrazol-5-yl)cyclopentyl [(2S)-tetrahydrofuran-2-ylmethyl]carbamate]	4.38
C[C@H]1CCN1C(=O)O[C@@H]1CC[C@H](c2cc(NC(=O)Cc3cnn(C)c3)n[nH]2)C1 [Example 588, (1R,3S)-3-(3-{[(1-methyl-1H-pyrazol-4-yl)acetyl]amino}-1H-pyrazol-5-yl)cyclopentyl (2S)-2-methylazetidine-1-carboxylate]	0.75
CC1(NC(=O)O[C@@H]2CC[C@H](c3cc(NC(=O)Cc4cc(C(F)(F)F)ccn4)n[nH]3)C2)CC1 [Example 444, (1R,3S)-3-[3-({[4-(trifluoromethyl)pyridin-2-yl]acetyl}amino)-1H-pyrazol-5-yl]cyclopentyl (1-methylcyclopropyl)carbamate]	1.41
Cc1cc(CC(=O)Nc2cc([C@H]3CC[C@@H](OC(=O)NC4(C)CC4)C3)[nH]n2)ncc1Cl [Example 440, (1R,3S)-3-(3-{[(5-chloro-4-methylpyridin-2-yl)acetyl]amino}-1H-pyrazol-5-yl)cyclopentyl (1-methylcyclopropyl)carbamate]	1.47
CC(C)NC(=O)O[C@@H]1CC[C@H](c2cc(NC(=O)Cc3cccc4ncsc34)n[nH]2)C1 [Example 284, (1R,3S)-3-{3-[(1,3-benzothiazol-7-ylacetyl)amino]-1H-pyrazol-5-yl}cyclopentyl propan-2-ylcarbamate]	0.6
O=C(Cc1ccc(F)cc1)Nc1cc([C@H]2CC[C@@H](OC(=O)NCC(F)F)C2)[nH]n1 [Example 248, (1R,3S)-3-(3-{[(4-fluorophenyl)acetyl]amino}-1H-pyrazol-5-yl)cyclopentyl (2,2-difluoroethyl)carbamate]	2.41
COc1cnc(CC(=O)Nc2cc([C@H]3CC[C@@H](OC(=O)NC4(C)CCOC4)C3)[nH]n2)cn1 (single isomer, unassigned) [Example 485]	1.41
COc1cc(C(=O)Nc2cc([C@H]3CC[C@@H](OC(=O)NC(C)(C)C)C3)[nH]n2)n(C)n1 [Example 302, (1R,3S)-3-(3-{[(3-methoxy-1-methyl-1H-pyrazol-5-yl)carbonyl]amino}-1H-pyrazol-5-yl)cyclopentyl tert-butylcarbamate]	0.5
CC[C@H](C)NC(=O)O[C@@H]1CC[C@H](c2cc(NC(=O)c3cnn(C)c3)n[nH]2)C1 [Example 320, (1R,3S)-3-(3-{[(1-methyl-1H-pyrazol-4-yl)carbonyl]amino}-1H-pyrazol-5-yl)cyclopentyl (2S)-butan-2-ylcarbamate]	2.95
Cc1cnc(CC(=O)Nc2cc([C@H]3CC[C@@H](OC(=O)NC4(C)CC4)C3)[nH]n2)cc1Cl [Example 131]	0.2
Cc1nc(CC(=O)Nc2cc([C@H]3CC[C@@H](OC(=O)NC(C)(C)C)C3)[nH]n2)ccc1Cl [Example 312, (1R,3S)-3-(3-{[(5-chloro-6-methylpyridin-2-yl)acetyl]amino}-1H-pyrazol-5-yl)cyclopentyl tert-butylcarbamate]	0.43
Cc1cnc(CC(=O)Nc2cc([C@H]3CC[C@@H](OC(=O)N(C)C(C)C)C3)[nH]n2)o1 [Example 290, (1R,3S)-3-(3-{[(5-methyl-1,3-oxazol-2-yl)acetyl]amino}-1H-pyrazol-5-yl)cyclopentyl methyl(propan-2-yl)carbamate]	1.45
O=C(Cc1ccon1)Nc1cc([C@H]2CC[C@@H](OC(=O)NC3(CC(F)(F)F)CC3)C2)[nH]n1 [Example 451, (1R,3S)-3-{3-[(1,2-oxazol-3-ylacetyl)amino]-1H-pyrazol-5-yl}cyclopentyl [1-(2,2,2-trifluoroethyl)cyclopropyl] carbamate]	0.46
CC(C)n1cc(CC(=O)Nc2cc([C@H]3CC[C@@H](OC(=O)NC4(C)CC4)C3)[nH]n2)nn1 [Example 436, (1R,3S)-3-[3-({[1-(propan-2-yl)-1H-1,2,3-triazol-4-yl]acetyl}amino)-1H-pyrazol-5-yl]cyclopentyl (1-methylcyclopropyl)carbamate]	3.3
CC1(NC(=O)O[C@@H]2CC[C@H](c3cc(NC(=O)Cc4coc(C5CC5)n4)n[nH]3)C2)CC1 [Example 432, (1R,3S)-3-(3-{[(2-cyclopropyl-1,3-oxazol-4-yl)acetyl]amino}-1H-pyrazol-5-yl)cyclopentyl (1-methylcyclopropyl)carbamate]	1.25
Cc1cc(CC(=O)Nc2cc([C@H]3CC[C@@H](OC(=O)N4CCC[C@H]4C)C3)[nH]n2)on1 [Example 633, (1R,3S)-3-(3-{[(3-methyl-1,2-oxazol-5-yl)acetyl]amino}-1H-pyrazol-5-yl)cyclopentyl (2R)-2-methylpyrrolidine-1-carboxylate]	2.11
COc1ccc(S(C)(=O)=O)c(CC(=O)Nc2cc([C@H]3CC[C@@H](OC(=O)NC(C)C(F)(F)F)C3)[nH]n2)c1 (single isomer, unassigned) [Example 292]	0.86
CC(C)NC(=O)O[C@@H]1CC[C@H](c2cc(NC(=O)Cc3ccc(C(F)(F)F)cn3)n[nH]2)C1 [Example 286, (1R,3S)-3-[3-({[5-(trifluoromethyl)pyridin-2-yl]acetyl}amino)-1H-pyrazol-5-yl]cyclopentyl propan-2-ylcarbamate]	4.14
CC[C@H](C)NC(=O)O[C@@H]1CC[C@H](c2cc(NC(=O)Cc3c(S(C)(=O)=O)c4ccccc4n3C)n[nH]2)C1 [Example 377, (1R,3S)-3-[3-({[1-methyl-3-(methylsulfonyl)-1H-indol-2-yl]acetyl}amino)-1H-pyrazol-5-yl]cyclopentyl (2S)-butan-2-ylcarbamate]	1.14
CC(C)(O)CNC(=O)O[C@@H]1CC[C@H](c2cc(NC(=O)Cc3cc(F)cc(F)c3)n[nH]2)C1 [Example 574, (1R,3S)-3-(3-{[(3,5-difluorophenyl)acetyl]amino}-1H-pyrazol-5-yl)cyclopentyl (2-hydroxy-2-methylpropyl)carbamate]	4.07
Cc1ncc(CC(=O)Nc2cc([C@H]3CC[C@@H](OC(=O)NC(C)C)C3)[nH]n2)s1 [Example 2, (1R,3S)-3-(3-{[(2-methyl-1,3-thiazol-5-yl)acetyl]amino}-1H-pyrazol-5-yl)cyclopentyl propan-2-ylcarbamate]	0.31
Cc1cc(CC(=O)Nc2cc([C@H]3CC[C@@H](OC(=O)N4C[C@@](C)(O)[C@@H]4C)C3)[nH]n2)on1 [Example 622, (1R,3S)-3-(3-{[(3-methyl-1,2-oxazol-5-yl)acetyl]amino}-1H-pyrazol-5-yl)cyclopentyl (2S,3R)-3-hydroxy-2,3-dimethylazetidine-1-carboxylate]	4
C[C@H](NC(=O)O[C@@H]1CC[C@H](c2cc(NC(=O)Cc3ccon3)n[nH]2)C1)C1CC1 [Example 466, (1R,3S)-3-{3-[(1,2-oxazol-3-ylacetyl)amino]-1H-pyrazol-5-yl}cyclopentyl [(1S)-1-cyclopropylethyl]carbamate]	1.02
CC(CO)CNC(=O)O[C@@H]1CC[C@H](c2cc(NC(=O)Cc3cc(F)cc(F)c3)n[nH]2)C1 (single isomer, unassigned) [Example 539]	2.35
Cc1cnc(CC(=O)Nc2cc([C@H]3CC[C@@H](OC(=O)N[C@@H](C)CF)C3)[nH]n2)o1 [Example 379, (1R,3S)-3-(3-{[(5-methyl-1,3-oxazol-2-yl)acetyl]amino}-1H-pyrazol-5-yl)cyclopentyl [(2S)-1-fluoropropan-2-yl]carbamate]	3.05
